Common to all, as to assay type: cell-based
Data set [1] can be described thus: Antagonist activity at rat alpha6alpha3beta4 nAChR expressed in Xenopus laevis oocytes assessed as inhibition of Ach-induced response at -70 mV holding potential by two electrode voltage-clamp assay. (In general: Two-electrode voltage clamp is typically applied to oocytes expressing channels or transporters.)
In data set [2] the target is T1, Neuronal acetylcholine receptor; alpha3/beta2 (Rattus norvegicus) (UniProt P04757+P12390). The data set can be described thus: Antagonist activity at rat alpha3beta2 nACHR expressed in Xenopus laevis oocytes assessed as Ach-induced current amplitude at 10 nM at -70 mV holding potential by two electrode voltage-clamp assay relative to control.
In data set [3] the target is nicotinic acetylcholine receptor alpha6/alpha3/beta2/beta3 (Rattus norvegicus, UniProt P04757+P12390+P12391+P43143). As to the kind of experiment: Antagonist activity at rat alpha6alpha3beta2beta3 nAChR expressed in Xenopus laevis oocytes assessed as Ach-induced current amplitude at 10 nM at -70 mV holding potential by two electrode voltage-clamp assay relative to control.
Sequence of nicotinic acetylcholine receptor alpha6/alpha3/beta2/beta3 (P04757 whole entry): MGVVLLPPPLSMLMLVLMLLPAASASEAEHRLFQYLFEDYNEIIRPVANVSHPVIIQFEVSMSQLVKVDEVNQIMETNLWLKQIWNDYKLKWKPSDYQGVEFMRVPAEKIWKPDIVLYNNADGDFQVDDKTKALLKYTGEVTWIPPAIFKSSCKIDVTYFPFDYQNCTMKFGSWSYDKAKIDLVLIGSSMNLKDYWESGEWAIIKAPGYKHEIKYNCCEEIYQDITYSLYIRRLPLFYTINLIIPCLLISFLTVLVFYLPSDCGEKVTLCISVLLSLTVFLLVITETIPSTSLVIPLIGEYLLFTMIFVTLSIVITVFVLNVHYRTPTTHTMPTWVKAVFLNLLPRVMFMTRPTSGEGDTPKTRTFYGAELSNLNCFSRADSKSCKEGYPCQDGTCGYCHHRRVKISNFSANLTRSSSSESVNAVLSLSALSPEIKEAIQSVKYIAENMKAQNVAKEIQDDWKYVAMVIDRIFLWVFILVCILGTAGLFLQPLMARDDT
Sequence of nicotinic acetylcholine receptor alpha6/alpha3/beta2/beta3 (P12390 whole entry): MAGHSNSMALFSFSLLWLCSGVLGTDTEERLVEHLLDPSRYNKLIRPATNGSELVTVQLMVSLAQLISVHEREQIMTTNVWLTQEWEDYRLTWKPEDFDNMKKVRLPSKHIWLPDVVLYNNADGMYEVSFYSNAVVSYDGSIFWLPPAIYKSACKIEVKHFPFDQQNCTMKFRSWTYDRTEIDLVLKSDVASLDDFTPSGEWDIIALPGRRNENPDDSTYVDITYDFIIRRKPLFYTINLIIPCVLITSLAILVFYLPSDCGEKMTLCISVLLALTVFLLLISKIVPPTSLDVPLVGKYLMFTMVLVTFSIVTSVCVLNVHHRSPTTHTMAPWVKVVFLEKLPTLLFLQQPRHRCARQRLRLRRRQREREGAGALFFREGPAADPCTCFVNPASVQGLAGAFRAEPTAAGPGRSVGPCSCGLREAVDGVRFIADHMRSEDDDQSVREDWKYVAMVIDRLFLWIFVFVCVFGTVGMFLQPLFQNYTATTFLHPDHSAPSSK
Sequence of nicotinic acetylcholine receptor alpha6/alpha3/beta2/beta3 (P12391 whole entry): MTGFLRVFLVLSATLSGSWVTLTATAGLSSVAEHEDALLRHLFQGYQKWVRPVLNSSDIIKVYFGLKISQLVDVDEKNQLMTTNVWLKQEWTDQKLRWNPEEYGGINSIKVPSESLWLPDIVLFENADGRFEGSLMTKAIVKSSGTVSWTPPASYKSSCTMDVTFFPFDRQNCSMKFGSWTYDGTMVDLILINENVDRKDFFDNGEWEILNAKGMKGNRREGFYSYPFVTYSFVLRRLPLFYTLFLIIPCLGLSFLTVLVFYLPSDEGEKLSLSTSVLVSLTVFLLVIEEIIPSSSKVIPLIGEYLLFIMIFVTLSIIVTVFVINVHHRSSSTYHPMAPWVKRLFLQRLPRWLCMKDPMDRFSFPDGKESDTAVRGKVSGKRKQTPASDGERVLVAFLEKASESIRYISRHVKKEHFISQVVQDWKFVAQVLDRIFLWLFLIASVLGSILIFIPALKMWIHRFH
Sequence of nicotinic acetylcholine receptor alpha6/alpha3/beta2/beta3 (P43143 whole entry): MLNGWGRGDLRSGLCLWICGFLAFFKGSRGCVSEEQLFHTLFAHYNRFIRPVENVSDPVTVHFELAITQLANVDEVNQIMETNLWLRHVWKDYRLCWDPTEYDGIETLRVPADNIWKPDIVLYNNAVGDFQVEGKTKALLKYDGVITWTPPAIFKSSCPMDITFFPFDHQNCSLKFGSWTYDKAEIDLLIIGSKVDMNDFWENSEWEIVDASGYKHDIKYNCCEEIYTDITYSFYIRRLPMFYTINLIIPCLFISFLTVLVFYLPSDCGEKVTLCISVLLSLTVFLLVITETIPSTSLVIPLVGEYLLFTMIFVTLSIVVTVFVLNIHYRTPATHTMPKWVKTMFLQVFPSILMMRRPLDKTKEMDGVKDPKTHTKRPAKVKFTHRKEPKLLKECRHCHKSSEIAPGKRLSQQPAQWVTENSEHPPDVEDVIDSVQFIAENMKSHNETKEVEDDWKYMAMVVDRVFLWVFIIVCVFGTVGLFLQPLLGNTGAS

For data set [4], the target named is T1, Neuronal acetylcholine receptor; alpha3/beta2 (Rattus norvegicus). As to the kind of experiment: Antagonist activity at rat alpha3beta2 nACHR expressed in Xenopus laevis oocytes assessed as Ach-induced current amplitude at 100 nM at -70 mV holding potential by two electrode voltage-clamp assay relative to control. Also on record: scale not given: the % may be the effect or the level left.

Where a SMILES comes first, the peptide text is derived from it. Bridges are numbered along the chain shown (N, C = ends). [ ]: non-standard residue; d: D form. Nle(6-COOH) = N[C@@H](CCCCC(=O)O)C(=O)O; Nle = CCCC[C@H](N)C(=O)O

Turning to `CCCC[C@@H]1NC(=O)[C@H](Cc2cnc[nH]2)NC(=O)[C@@H]2CSSC[C@H](NC(=O)CN)C(=O)N[C@@H](CSSC[C@@H](C(N)=O)NC(=O)[C@H]([C@@H](C)CC)NC(=O)[C@H](CCC(=O)O)NC(=O)[C@@H]3CCCN3C(=O)[C@H](Cc3cnc[nH]3)NC(=O)[C@H](CCCCC(=O)O)NC1=O)C(=O)N[C@@H](CO)C(=O)N[C@@H](Cc1cnc[nH]1)C(=O)N1CCC[C@H]1C(=O)N[C@@H](C)C(=O)N2` (H-GCCSHPACH[Nle][Nle(6-COOH)]HPEIC-NH2; disulfide 2-8, 3-16), in data set [1], the half-maximal inhibitory concentration (IC50) (in general, the concentration at which inhibition is half-maximal) worked out at 205 nM. The inhibition (usually the drop in the measured response relative to a control, in per cent) in data set [2] stood at 8%. For the same compound, in data set [3], the inhibition at 0.01 µM came to 90%. The Activity in data set [4] stood at 2%.
`CCCC[C@@H]1NC(=O)[C@H](Cc2cnc[nH]2)NC(=O)[C@@H]2CSSC[C@H](NC(=O)CN)C(=O)N[C@@H](CSSC[C@@H](C(N)=O)NC(=O)[C@H](CC(C)C)NC(=O)[C@H](CCC(=O)O)NC(=O)[C@@H]3CCCN3C(=O)[C@H](Cc3cnc[nH]3)NC(=O)[C@H](CCCCC(=O)O)NC1=O)C(=O)N[C@@H](CO)C(=O)N[C@@H](Cc1cnc[nH]1)C(=O)N1CCC[C@H]1C(=O)N[C@@H](C)C(=O)N2` (H-GCCSHPACH[Nle][Nle(6-COOH)]HPELC-NH2; disulfide 2-8, 3-16): the IC50 in data set [1] was determined as 120 nM.
In the case of `CC[C@H](C)[C@@H]1NC(=O)[C@H](Cc2cnc[nH]2)NC(=O)[C@@H]2CSSC[C@H](NC(=O)CN)C(=O)N[C@@H](CSSC[C@@H](C(N)=O)NC(=O)[C@H](CC(C)C)NC(=O)[C@H](CCC(=O)O)NC(=O)[C@@H]3CCCN3C(=O)[C@H](Cc3cnc[nH]3)NC(=O)[C@H](CCCCC(=O)O)NC1=O)C(=O)N[C@@H](CO)C(=O)N[C@@H](Cc1cnc[nH]1)C(=O)N1CCC[C@H]1C(=O)N[C@@H](C)C(=O)N2` (H-GCCSHPACHI[Nle(6-COOH)]HPELC-NH2; disulfide 2-8, 3-16), the 50% inhibitory concentration (IC50) in data set [1] was determined as 43.1 nM.
Regarding `CC[C@H](C)[C@@H]1NC(=O)[C@H](CCC(=O)O)NC(=O)[C@@H]2CCCN2C(=O)[C@H](Cc2cnc[nH]2)NC(=O)[C@H](CCCCC(=O)O)NC(=O)[C@H]([C@@H](C)CC)NC(=O)[C@H](Cc2cnc[nH]2)NC(=O)[C@@H]2CSSC[C@H](NC(=O)CN)C(=O)N[C@@H](CSSC[C@@H](C(N)=O)NC1=O)C(=O)N[C@@H](CO)C(=O)N[C@@H](Cc1cnc[nH]1)C(=O)N1CCC[C@H]1C(=O)N[C@@H](C)C(=O)N2` (H-GCCSHPACHI[Nle(6-COOH)]HPEIC-NH2; disulfide 2-8, 3-16), the IC50 in data set [1] came to 77.3 nM.

The record behind these values is ChEMBL document CHEMBL4364262 (J Med Chem, 2019).
